Results on two molecules are retold here after patent publication US20060252798A1, “Metal ion chelators and therapeutic use thereof” (priority 2003, published 2006).

Structures are written as SMILES. Where two headings read alike, the source gives them in different places. Some results are limits rather than exact numbers.

In experiment [1] the test system is SK-N-MC neuroepithelioma cells. Kind of experiment: 59Fe mobilization from prelabelled SK-N-MC neuroepithelioma cells. Format: cell-based, human. The note with it: chelators 25 μM, 3 h at 37° C.; media alone released 5% (FIG. 11A). On the procedure: The effect of chelators on ^59Fe release from prelabelled cells was studied using standard procedures.^18 Cells were prelabelled with ^59Fe-transferrin (0.75 μM) for 3 h at 37° C. […] The overlying medium was then removed and placed into γ-counting tubes. The cells were removed from the petri dishes in 1 ml of BSS using a plastic spatula and transferred to a separate set of γ-counting tubes.
The ability of the compounds to mobilise ^59Fe from SK-N-MC neuroepithelioma cells was assessed after a 3 h labelling period with ^59Fe-Tf (0.75 μM) at 37° C. […]
DFO and 311 were used as internal standards.

For experiment [2], the system named is M109 carcinoma cells. The experiment can be described thus: 59Fe mobilisation from prelabelled M109 cells. The note with it: 3 h, control medium 8±1%. Format: cell-based, mouse. On the procedure:
(§1) The ability of the compound Dp44mT to inhibit the growth of M109 lung carcinoma cells in mice was assessed. Studies were performed using M109 carcinoma cells in culture to determine the effect of Dp44mT on mobilising ^59Fe from these cells (FIG. 11C) and inhibiting ^59Fe uptake from ^59Fe-Tf (FIG. 11D). As internal controls, cells were incubated with DFO and 311. The effect of compound concentration on increasing ^59Fe mobilisation from M109 cells was examined by labelling cells with ^59Fe-Tf (0.75 μM) for 3 h at 37° C. followed by washing and reincubation with the respective compounds (0.2-25 μM) for 3 h at 37° C. (FIG. 11C). […] In contrast, 311 increased cellular ^59Fe release from 8±1% (control medium) to […] at 5 μM (FIG. 11C). For Dp44mT ^59Fe release plateaued at 2 μM, resulting in the efflux of 48±2% of ^59Fe (FIG. 11C).

Experiment [3] relates to M109 carcinoma cells. The experiment can be described thus: 59Fe uptake from 59Fe-Tf by M109 cells. In kind it is cell-based, mouse. On the procedure: as §1
At 1 μM, 311 reduced ^59Fe uptake to 40±4% of the control. […] Dp44mT had similar activity to 311 up to a concentration of 5 μM, where it reduced ^59Fe uptake to 30±1% of the control (FIG. 11D).

The test system of experiment [4] is SK-N-MC neuroepithelioma cells. Kind of experiment: MTT cellular proliferation assay, SK-N-MC. Format: cell-based, human.
Another experiment concerns MRC-5 fibroblasts. Kind of experiment: MTT cellular proliferation assay, MRC-5 fibroblasts. Format: cell-based, human. The settings on record: Table 3, normal cells, 72 h, MTT, read-out: IC50 MRC-5 fibroblasts. On the procedure:
(§2) The final concentration of the compounds was 0.39-50 μM. […] […] After this incubation, 0.01 mL of MTT was added to each well and the plates incubated for 2 h at 37° C. The cells were then solubilised by adding 0.1 mL of 10% SDS-50% isobutanol in 0.01 M HCl and the plates then read at 570 nm on a scanning multiwell spectrophotometer (Titertek Multiscan; Beckman Instruments Inc, California). MTT colour formation was directly proportional to the number of viable cells.
The MRC-5 cell type is a normal human lung fibroblast cell strain that is mortal and senesces after a number of passages in vitro. The SK-N-MC neuroepithelioma cell type is immortal.
Dp2mT served as a negative control.

A further experiment deals with SK-Mel-28 melanoma cells. The experiment can be described thus: MTT cellular proliferation assay, SK-Mel-28. Format: cell-based, human.
Experiment [5] relates to MCF-7 breast cancer cells. The experiment can be described thus: MTT cellular proliferation assay, MCF-7. In kind it is cell-based, human.
Another experiment has as its system H69AR lung cancer. The experiment can be described thus: MTT cellular proliferation assay, H69AR. In kind it is cell-based. The note with it: 0-50 μM, 72 h, 1 experiment. On the procedure:
as §2
(§3) At the end of the incubation period, cell density was determined by the MTT assay (described above).

The subject of a further experiment is IMR-32 Neuroblastoma. The experiment can be described thus: MTT cellular proliferation assay, IMR-32. The settings on record: 72 h, 1 experiment. Format: cell-based. On the procedure: as §2, §3
Another experiment deals with HEP G2 Hepatoma. The experiment can be described thus: MTT cellular proliferation assay, HEP G2. Format: cell-based. The settings on record: 72 h, 1 experiment. On the procedure:
as §2, §3

Another experiment concerns DU 145 prostate cancer. Kind of experiment: MTT cellular proliferation assay, DU 145. Format: cell-based. The settings on record: 72 h, 2 experiments. On the procedure: as §2, §3
The subject of a further experiment is NCI H2452 mesothelioma. Kind of experiment: MTT cellular proliferation assay, NCI H2452. In kind it is cell-based. The note with it: 72 h, 3 experiments. On the procedure: as §2, §3
The subject of the next experiment is Ndrg1. Kind of experiment: Ndrg1 expression in MCF-7 cells (Western blotting). In kind it is cell-based, human. The note with it: 25 μM, 24 h, MCF-7 cells (FIG. 16). On the procedure:
FIG. 16. […] The expression of Ndrg1 and β-actin protein levels were assessed by Western blotting.
MCF-7 cells were incubated for 24 h with a range of metal ion chelators. […] Dp2mT was used as a negative control, […]

As to `CN(C)C(=S)NN=C(c1ccccn1)c1ccccn1` [Dp44mT, di-2-pyridylketone 4,4-dimethyl-3-thiosemicarbazone], the “efflux/mobilisation of total cellular 59Fe” value in experiment [1] was 47%. Also, the “efflux of 59Fe (plateau)” value in the experiment with M109 carcinoma cells [2] (2 μM) is listed as 48±2%. For the same molecule, the 59Fe uptake with M109 carcinoma cells [3] (5 μM) is on record as 30±1 % of the control. The IC50 is 0.03 ± 0.01 µM in experiment [4] (Table 3, 0-25 μM, 72 h, MTT, mean ± SD, read-out: IC50 SK-N-MC neuroepithelioma); more than 25 µM with MRC-5 fibroblasts; 0.06 ± 0.03 µM in the experiment on SK-Mel-28 melanoma cells (Table 3, 72 h, mean ± SD); 0.06 ± 0.01 µM in [5] (Table 3, 72 h, MTT, mean ± SD, read-out: IC50 MCF-7 breast cancer); 0.1 µM in experiment [5] (values given in Example 8, read-out: IC50, anti-proliferative activity in MCF-7 cells); 0.05 µM with H69AR lung cancer. Further, the IC50 is 0.01 µM in the experiment on IMR-32 Neuroblastoma (0-50 μM), 1.36 µM with HEP G2 Hepatoma (0-50 μM), 0.06 µM in the experiment with DU 145 prostate cancer (0-50 μM) and 0.01 µM in the experiment on NCI H2452 mesothelioma (0-50 μM). The “up-regulation of Ndrg1” value in the experiment with Ndrg1 is reported as “markedly increased”.
In the case of `CC(=O)N(O)CCCCCNC(=O)CCC(=O)N(O)CCCCCNC(=O)CCC(=O)N(O)CCCCCN` [DFO, desferrioxamine], in experiment [1], the “efflux/mobilisation of total cellular 59Fe” value stood at 11%. The “59Fe released from cells” value with M109 carcinoma cells [2] (25 μM) stood at 12±1%. For the same molecule, in the experiment with M109 carcinoma cells [3] (0.2-25 μM (FIG. 11D)), the “inhibition of 59Fe uptake” value is “little effect”. For the same molecule, the half-inhibitory concentration (IC50) in experiment [4] (Homo sapiens, SK-N-MC, 72 h, Table 3, 0-25 μM, 72 h, MTT, mean ± SD, read-out: IC50 SK-N-MC neuroepithelioma) was 5 µM; in [4] (Homo sapiens, SK-N-MC, 90 h, Table 2, MTT assay, 90 h incubation, Mean ± SD, 4 experiments, read-out: IC50 Values of Chelators), more than 50 µM; in the experiment with MRC-5 fibroblasts (Homo sapiens, MRC5) it was more than 25 µM; with SK-Mel-28 melanoma cells (Homo sapiens, SK-MEL-28, 72 h, Table 3, mean ± SD), 15 ± 7 µM; in [5] (Homo sapiens, MCF7, 72 h, Table 3, 72 h, MTT, mean ± SD, read-out: IC50 MCF-7 breast cancer) it was 14 ± 9 µM; in [5] (Homo sapiens, MCF7, values given in Example 8 text, read-out: IC50, anti-proliferative activity in MCF-7 cells) it was 20 µM. Besides, the half-maximal inhibitory concentration (IC50) in the experiment on H69AR lung cancer (Homo sapiens, H69AR) was more than 50 µM; in the experiment on IMR-32 Neuroblastoma (Homo sapiens, IMR-32, 0-50 μM) it was 9.38 µM; in the experiment on HEP G2 Hepatoma (Homo sapiens, HepG2, 0-50 μM) it was 18.7 µM; with DU 145 prostate cancer (Homo sapiens, DU-145, 0-50 μM), 15.8 µM; with NCI H2452 mesothelioma (Homo sapiens, NCI-H2452, 0-50 μM) it was 32.3 µM. The “up-regulation of Ndrg1” value in the experiment with Ndrg1 is recorded as “no effect”.
